# Values quoted from earlier work, collected in US8277782B2, “Topical oral care compositions comprising host response modulating agents” (The Procter & Gamble Company, priority 2000, dated 2012).
# System: alveolar bone
# Settings: non steroidal anti-inflammatory drugs, cyclo-oxygenase inhibitors; prior knowledge
row,SMILES,resorption of alveolar bone
1,COc1ccc2c(c1)c(CC(=O)O)c(C)n2C(=O)c1ccc(Cl)cc1 [indomethacin],markedly reduce
2,CC(C(=O)O)c1ccc(-c2ccccc2)c(F)c1 (centres unmarked) [flurbiprofen],markedly reduce
